Experimental data published in article doi:10.1101/2023.03.24.534094v2 (biorxiv, 2023).
Where two headings read alike, the source gives them in different places.

How the values were obtained:
[1] = target: SIK1 (Homo sapiens, UniProt P57059); test: NanoBRET target engagement; type: biochemical; conditions: lysed mode, HEK293T, tracer displacement
[2] = target: MST4 (Homo sapiens, UniProt Q9P289); test: biochemical; conditions: for ΔTm at 10 µM: read-out: dTm MST4
[3] = target: T1, MST1 (Homo sapiens, UniProt Q13043); test: biochemical; conditions: for ΔTm at 10 µM: read-out: dTm MST1
T1 sequence (Q13043 1-487): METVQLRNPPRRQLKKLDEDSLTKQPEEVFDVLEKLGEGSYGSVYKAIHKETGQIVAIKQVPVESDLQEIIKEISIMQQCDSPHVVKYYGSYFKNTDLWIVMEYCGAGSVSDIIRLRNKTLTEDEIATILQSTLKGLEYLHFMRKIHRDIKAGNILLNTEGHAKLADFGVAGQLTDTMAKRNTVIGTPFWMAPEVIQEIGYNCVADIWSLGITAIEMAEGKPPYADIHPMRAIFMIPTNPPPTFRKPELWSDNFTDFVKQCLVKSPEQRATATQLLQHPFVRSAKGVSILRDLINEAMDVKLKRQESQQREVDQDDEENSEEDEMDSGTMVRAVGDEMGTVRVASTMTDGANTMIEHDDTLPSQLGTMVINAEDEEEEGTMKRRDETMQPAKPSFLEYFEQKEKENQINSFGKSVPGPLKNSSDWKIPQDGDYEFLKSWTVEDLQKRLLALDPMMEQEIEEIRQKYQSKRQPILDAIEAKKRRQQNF

[4] = target: SIK2 (Homo sapiens, UniProt Q9H0K1); test: NanoBRET target engagement; type: cell-based; conditions: intact mode, HEK293T, 37 °C, 2 h, tracer displacement
SIK2, sequence (Q9H0K1 whole entry): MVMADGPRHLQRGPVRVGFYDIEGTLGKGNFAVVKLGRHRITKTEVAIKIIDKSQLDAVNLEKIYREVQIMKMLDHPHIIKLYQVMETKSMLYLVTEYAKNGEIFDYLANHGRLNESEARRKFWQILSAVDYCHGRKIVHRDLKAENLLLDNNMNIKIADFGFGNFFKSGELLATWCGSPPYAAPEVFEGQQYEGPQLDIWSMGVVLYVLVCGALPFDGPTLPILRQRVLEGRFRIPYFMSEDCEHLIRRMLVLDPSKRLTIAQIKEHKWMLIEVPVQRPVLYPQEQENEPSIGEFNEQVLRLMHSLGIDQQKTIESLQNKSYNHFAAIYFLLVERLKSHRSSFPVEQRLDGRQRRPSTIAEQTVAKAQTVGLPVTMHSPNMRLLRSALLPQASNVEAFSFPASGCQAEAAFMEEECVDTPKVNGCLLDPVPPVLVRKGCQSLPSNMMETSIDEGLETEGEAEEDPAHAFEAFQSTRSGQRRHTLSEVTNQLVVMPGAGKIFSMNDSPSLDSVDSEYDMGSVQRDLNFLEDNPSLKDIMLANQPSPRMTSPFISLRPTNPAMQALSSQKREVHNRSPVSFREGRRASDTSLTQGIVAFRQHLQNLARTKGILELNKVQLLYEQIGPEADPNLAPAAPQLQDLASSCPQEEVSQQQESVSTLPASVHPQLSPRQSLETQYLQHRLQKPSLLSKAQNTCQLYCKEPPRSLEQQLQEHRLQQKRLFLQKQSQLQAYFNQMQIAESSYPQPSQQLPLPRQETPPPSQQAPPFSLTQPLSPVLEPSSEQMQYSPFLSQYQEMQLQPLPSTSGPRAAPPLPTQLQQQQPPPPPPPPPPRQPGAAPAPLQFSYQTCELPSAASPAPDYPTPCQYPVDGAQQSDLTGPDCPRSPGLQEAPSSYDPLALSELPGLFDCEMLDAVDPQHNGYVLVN

[5] = target: SIK3 (Homo sapiens, UniProt Q9Y2K2); test: NanoBRET target engagement; type: cell-based; conditions: intact mode, HEK293T, 37 °C, 2 h, tracer displacement
[6] = target: TAF1 (Homo sapiens, UniProt P21675); test: biochemical
TAF1, sequence (P21675 whole entry): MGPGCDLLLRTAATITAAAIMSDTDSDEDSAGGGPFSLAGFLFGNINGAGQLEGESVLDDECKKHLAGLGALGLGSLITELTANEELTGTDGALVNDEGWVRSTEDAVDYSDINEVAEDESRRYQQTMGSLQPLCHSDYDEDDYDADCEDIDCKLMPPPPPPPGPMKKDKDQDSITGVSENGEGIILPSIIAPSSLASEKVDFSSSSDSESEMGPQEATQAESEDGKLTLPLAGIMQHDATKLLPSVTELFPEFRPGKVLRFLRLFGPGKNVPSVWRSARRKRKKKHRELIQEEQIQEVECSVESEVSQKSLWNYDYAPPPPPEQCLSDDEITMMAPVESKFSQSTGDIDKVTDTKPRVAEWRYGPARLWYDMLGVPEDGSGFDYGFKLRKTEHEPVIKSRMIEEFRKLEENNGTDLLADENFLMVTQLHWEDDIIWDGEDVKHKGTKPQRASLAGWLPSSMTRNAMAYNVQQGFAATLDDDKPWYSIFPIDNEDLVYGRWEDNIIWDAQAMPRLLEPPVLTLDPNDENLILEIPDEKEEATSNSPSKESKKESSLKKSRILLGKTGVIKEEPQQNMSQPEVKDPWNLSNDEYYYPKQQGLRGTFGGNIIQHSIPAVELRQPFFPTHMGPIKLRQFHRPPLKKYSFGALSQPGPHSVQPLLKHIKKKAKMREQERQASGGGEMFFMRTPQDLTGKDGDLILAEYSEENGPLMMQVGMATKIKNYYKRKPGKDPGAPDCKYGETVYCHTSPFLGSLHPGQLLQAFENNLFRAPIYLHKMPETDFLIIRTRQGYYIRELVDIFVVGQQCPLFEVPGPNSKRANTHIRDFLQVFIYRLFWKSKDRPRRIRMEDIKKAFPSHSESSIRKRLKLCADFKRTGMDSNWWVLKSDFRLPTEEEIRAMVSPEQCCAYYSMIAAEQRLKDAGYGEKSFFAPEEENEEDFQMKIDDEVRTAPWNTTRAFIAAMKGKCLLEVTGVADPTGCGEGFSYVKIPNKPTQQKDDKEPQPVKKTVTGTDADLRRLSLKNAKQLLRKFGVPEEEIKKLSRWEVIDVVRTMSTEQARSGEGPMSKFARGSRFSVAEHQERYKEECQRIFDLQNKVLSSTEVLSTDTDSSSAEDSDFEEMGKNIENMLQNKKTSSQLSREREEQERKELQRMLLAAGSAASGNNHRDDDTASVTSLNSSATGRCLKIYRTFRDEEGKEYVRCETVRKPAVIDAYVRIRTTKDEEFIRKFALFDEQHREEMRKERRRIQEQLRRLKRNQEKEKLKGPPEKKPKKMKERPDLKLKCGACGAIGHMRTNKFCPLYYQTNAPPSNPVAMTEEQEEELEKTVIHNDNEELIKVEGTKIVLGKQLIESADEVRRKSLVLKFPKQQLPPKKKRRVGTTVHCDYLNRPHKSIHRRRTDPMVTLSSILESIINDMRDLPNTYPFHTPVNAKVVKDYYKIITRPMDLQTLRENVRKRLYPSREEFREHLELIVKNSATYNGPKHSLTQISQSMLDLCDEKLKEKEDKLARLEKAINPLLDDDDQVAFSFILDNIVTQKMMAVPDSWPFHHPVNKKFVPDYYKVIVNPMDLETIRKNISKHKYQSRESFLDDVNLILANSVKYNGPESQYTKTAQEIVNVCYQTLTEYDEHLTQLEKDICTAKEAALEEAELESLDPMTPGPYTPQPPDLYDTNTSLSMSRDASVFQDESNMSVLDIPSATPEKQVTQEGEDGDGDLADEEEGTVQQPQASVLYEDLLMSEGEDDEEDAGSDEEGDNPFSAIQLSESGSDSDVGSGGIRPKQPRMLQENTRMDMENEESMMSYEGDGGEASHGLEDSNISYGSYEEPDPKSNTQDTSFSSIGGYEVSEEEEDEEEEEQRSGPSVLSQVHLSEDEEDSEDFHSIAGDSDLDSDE

[7] = target: GSK3B (Homo sapiens, UniProt P49841); test: biochemical
GSK3B, sequence (P49841 whole entry): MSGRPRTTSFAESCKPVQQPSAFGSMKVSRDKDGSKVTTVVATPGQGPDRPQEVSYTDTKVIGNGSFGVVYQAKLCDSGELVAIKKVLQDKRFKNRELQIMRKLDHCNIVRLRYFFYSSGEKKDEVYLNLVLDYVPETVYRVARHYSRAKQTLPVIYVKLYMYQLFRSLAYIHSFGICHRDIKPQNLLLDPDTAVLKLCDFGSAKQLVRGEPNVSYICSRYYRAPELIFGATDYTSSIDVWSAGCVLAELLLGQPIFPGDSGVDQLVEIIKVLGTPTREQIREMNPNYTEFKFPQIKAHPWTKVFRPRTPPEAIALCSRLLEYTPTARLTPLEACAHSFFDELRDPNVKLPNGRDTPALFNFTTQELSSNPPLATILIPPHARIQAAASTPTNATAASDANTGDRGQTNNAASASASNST

[8] = target: T2, DRAK2 (Homo sapiens, UniProt O94768); test: biochemical
T2 sequence (O94768 1-372): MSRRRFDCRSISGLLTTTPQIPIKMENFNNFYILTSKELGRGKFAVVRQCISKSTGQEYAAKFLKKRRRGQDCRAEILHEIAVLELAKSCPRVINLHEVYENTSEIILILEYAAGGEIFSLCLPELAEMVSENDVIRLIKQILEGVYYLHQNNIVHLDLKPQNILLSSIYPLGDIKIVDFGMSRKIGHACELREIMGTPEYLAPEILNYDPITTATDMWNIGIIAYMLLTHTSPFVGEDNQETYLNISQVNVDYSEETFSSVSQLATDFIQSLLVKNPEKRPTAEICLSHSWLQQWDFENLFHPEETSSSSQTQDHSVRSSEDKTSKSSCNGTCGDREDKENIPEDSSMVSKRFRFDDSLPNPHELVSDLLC

[9] = target: FGFR1 (Homo sapiens, UniProt P11362); test: biochemical
FGFR1, sequence (P11362 whole entry): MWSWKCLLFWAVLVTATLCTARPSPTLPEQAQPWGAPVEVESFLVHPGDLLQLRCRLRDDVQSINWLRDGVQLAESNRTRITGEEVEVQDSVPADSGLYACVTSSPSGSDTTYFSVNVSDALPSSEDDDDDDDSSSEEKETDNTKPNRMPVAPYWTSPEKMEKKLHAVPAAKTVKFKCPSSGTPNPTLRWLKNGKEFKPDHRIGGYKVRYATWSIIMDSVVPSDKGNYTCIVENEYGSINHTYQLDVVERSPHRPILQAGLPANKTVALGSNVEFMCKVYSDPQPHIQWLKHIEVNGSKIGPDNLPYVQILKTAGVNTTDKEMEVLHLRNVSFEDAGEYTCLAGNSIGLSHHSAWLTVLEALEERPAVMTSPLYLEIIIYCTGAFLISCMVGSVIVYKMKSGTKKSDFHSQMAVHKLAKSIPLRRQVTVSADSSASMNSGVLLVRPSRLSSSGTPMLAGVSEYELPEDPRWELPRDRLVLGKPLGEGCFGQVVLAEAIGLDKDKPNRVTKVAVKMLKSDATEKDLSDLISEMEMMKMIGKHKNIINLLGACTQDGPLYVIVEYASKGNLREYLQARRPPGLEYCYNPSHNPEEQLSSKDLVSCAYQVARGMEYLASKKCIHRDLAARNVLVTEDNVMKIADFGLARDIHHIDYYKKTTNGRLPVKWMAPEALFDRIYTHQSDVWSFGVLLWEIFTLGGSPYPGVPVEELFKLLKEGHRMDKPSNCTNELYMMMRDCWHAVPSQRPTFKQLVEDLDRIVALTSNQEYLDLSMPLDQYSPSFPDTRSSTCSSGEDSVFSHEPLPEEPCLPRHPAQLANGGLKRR

[10] = target: BRAF (Homo sapiens, UniProt P15056); test: biochemical
[11] = target: STLK3 (Homo sapiens, UniProt Q9UEW8); test: biochemical
[12] = target: T3, ULK3 (Homo sapiens, UniProt Q6PHR2); test: biochemical
T3 sequence (Q6PHR2 1-472): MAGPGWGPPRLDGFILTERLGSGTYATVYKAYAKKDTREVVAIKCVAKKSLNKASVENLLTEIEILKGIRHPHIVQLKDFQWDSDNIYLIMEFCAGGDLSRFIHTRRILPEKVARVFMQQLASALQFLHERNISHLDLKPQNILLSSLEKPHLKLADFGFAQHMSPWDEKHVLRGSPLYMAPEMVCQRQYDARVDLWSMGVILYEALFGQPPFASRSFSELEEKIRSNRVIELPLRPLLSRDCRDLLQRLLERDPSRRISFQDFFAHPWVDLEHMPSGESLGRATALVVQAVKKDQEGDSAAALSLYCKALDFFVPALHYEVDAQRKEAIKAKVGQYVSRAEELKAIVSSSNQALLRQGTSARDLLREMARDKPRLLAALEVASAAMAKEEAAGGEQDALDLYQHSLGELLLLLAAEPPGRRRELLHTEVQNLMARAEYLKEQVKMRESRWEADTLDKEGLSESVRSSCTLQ

[13] = target: T4, MST2 (Homo sapiens, UniProt Q13188); test: biochemical; conditions: for ΔTm at 10 µM: read-out: dTm MST2
T4 sequence (Q13188 1-491): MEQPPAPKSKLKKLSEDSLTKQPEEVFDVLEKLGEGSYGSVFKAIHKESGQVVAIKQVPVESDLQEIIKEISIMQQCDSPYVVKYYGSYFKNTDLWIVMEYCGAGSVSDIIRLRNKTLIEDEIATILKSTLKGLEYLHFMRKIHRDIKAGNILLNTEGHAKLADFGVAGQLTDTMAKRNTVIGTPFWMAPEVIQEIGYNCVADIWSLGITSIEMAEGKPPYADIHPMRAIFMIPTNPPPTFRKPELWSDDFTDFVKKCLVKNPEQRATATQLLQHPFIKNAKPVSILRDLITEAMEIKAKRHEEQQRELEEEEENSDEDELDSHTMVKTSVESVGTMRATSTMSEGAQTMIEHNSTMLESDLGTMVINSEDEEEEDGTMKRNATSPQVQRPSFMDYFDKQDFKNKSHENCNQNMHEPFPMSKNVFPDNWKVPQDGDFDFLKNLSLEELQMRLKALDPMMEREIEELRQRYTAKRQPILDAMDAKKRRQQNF

MST4, sequence (Q9P289 whole entry): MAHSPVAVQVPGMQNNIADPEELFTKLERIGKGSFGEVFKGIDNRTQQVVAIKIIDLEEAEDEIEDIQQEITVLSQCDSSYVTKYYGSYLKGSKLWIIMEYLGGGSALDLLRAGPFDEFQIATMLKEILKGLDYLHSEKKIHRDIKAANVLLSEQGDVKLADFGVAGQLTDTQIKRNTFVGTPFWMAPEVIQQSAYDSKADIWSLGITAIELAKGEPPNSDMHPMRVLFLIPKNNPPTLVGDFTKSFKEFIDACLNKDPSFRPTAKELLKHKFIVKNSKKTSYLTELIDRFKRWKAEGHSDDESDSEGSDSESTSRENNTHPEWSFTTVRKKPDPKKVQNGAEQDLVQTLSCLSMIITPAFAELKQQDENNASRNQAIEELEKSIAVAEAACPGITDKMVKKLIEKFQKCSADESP

SMILES	IC50 [1] [nM]	ΔTm at 10 µM [2] [°C]	ΔTm at 10 µM [3] [°C]	IC50 [4] [nM]	IC50 [5] [nM]	ΔTm at 10 µM [13] [°C]	further results
CNc1ncc2cc(-c3cc(Br)ccc3Cl)c(=O)n(CCCCN)c2n1 [compound 6, 8-(4-Aminobutyl)-6-(5-bromo-2-chlorophenyl)-2-(methylamino)pyrido[2,3-d]pyrimidin-7(8H)-one]	239 ± 46	2.2	1.9	1400 ± 100	352 ± 11	2.5	–
CNc1ncc2cc(-c3cc(F)ccc3F)c(=O)n(CCCCN)c2n1 [compound 5, 8-(4-Aminobutyl)-6-(2,5-difluorophenyl)-2-(methylamino)pyrido[2,3-d]pyrimidin-7(8H)-one]	72 ± 11	0.9	0.9	89 ± 2	18 ± 2	0.6	–
CNc1ncc2cc(-c3cc(Cl)ccc3Cl)c(=O)n(CCCCN)c2n1 [compound 8, 8-(4-Aminobutyl)-6-(2,5-dichlorophenyl)-2-(methylamino)pyrido[2,3-d]pyrimidin-7(8H)-one]	277 ± 123	2	1.6	665 ± 40	113 ± 95	1.4	ΔTm at 10 µM ([6]; read-out: dTm 8): -0.7 °C; ΔTm at 10 µM ([7]; read-out: dTm 8): 1 °C; ΔTm at 10 µM ([8]; read-out: dTm 8): 0.1 °C; ΔTm at 10 µM ([9]; read-out: dTm 8): 3.3 °C; ΔTm at 10 µM ([10]; read-out: dTm 8): 10.8 °C; ΔTm at 10 µM ([11]; read-out: dTm 8): 0.2 °C; ΔTm at 10 µM ([12]; read-out: dTm 8): 1 °C
CNc1ncc2cc(-c3ccc(-c4cccc(C)n4)cc3Cl)c(=O)n(CC3OCC(N)CO3)c2n1 (centres unmarked) [compound 2, G-5555]	–	–	–	–	–	–	dTm MST4 ([2]; 10 µM, binder): 6.4 °C; dTm MST1 ([3]; 10 µM, binder): 4.2 °C; dTm MST2 ([13]; 10 µM, binder): 5.0 °C
CNc1ncc2cc(-c3ccccc3Cl)c(=O)n(CCCCN)c2n1 [compound 4, 8-(4-Aminobutyl)-6-(2-chlorophenyl)-2-(methylamino)pyrido[2,3-d]pyrimidin-7(8H)-one]	20 ± 7	2.6	1.9	74 ± 2	25 ± 3	2.2	–
CNc1ncc2cc(-c3cc(Br)ccc3Cl)c(=O)n(C[C@H]3OC[C@H](N)CO3)c2n1 [compound 7, 8-(((2r,5r)-5-Amino-1,3-dioxan-2-yl)methyl)-6-(5-bromo-2-chlorophenyl)-2-(methylamino)pyrido[2,3-d]pyrimidin-7(8H)-one]	2400 ± 1100	0.6	1.7	4400 ± 100	1000 ± 300	1.5	–

Second part, led by results:

IC50 [1] [nM]	ΔTm at 10 µM [2] [°C]	ΔTm at 10 µM [3] [°C]	IC50 [4] [nM]	IC50 [5] [nM]	ΔTm at 10 µM [13] [°C]	SMILES	further results
6 ± 2	7.6	2.8	31 ± 1	4 ± 0.1	5.2	CNc1ncc2cc(-c3cc(F)c(-c4cccc(C)n4)cc3F)c(=O)n(CCCCN)c2n1 [compound 12, 8-(4-Aminobutyl)-6-(2,5-difluoro-4-(6-methylpyridin-2-yl)phenyl)-2-(methylamino)pyrido[2,3-d]pyrimidin-7(8H)-one]	ΔTm at 10 µM ([6]; read-out: dTm 12): 0.4 °C; ΔTm at 10 µM ([7]; read-out: dTm 12): 1.7 °C; ΔTm at 10 µM ([8]; read-out: dTm 12): 5.7 °C; ΔTm at 10 µM ([9]; read-out: dTm 12): 0.6 °C; ΔTm at 10 µM ([10]; read-out: dTm 12): 2.3 °C; ΔTm at 10 µM ([11]; read-out: dTm 12): 12.1 °C; ΔTm at 10 µM ([12]; read-out: dTm 12): 6.7 °C
1000 ± 400	0.4	0.9	6100 ± 100	2500 ± 100	0.8	CNc1ncc2cc(-c3cc(C(F)(F)F)ccc3Cl)c(=O)n(CCCCN)c2n1 [compound 9, 8-(4-Aminobutyl)-6-(2-chloro-5-(trifluoromethyl)phenyl)-2-(methylamino)pyrido[2,3-d]pyrimidin-7(8H)-one]	ΔTm at 10 µM ([6]; read-out: dTm 9): -0.7 °C; ΔTm at 10 µM ([7]; read-out: dTm 9): 0.8 °C; ΔTm at 10 µM ([8]; read-out: dTm 9): 0 °C; ΔTm at 10 µM ([9]; read-out: dTm 9): 1.2 °C; ΔTm at 10 µM ([10]; read-out: dTm 9): 10.4 °C; ΔTm at 10 µM ([11]; read-out: dTm 9): 0.3 °C; ΔTm at 10 µM ([12]; read-out: dTm 9): 0.6 °C
228 ± 142	1.8	1.5	1100 ± 100	290 ± 42	1.4	CNc1ncc2cc(-c3cc(Cl)ccc3Br)c(=O)n(CCCCN)c2n1 [compound 10, 8-(4-Aminobutyl)-6-(2-bromo-5-chlorophenyl)-2-(methylamino)pyrido[2,3-d]pyrimidin-7(8H)-one]	ΔTm at 10 µM ([6]; read-out: dTm 10): -0.8 °C; ΔTm at 10 µM ([7]; read-out: dTm 10): 0.8 °C; ΔTm at 10 µM ([8]; read-out: dTm 10): 0.1 °C; ΔTm at 10 µM ([9]; read-out: dTm 10): 2.9 °C; ΔTm at 10 µM ([10]; read-out: dTm 10): 11.4 °C; ΔTm at 10 µM ([11]; read-out: dTm 10): 0.3 °C; ΔTm at 10 µM ([12]; read-out: dTm 10): 1.1 °C
429 ± 117	1.5	1.6	2700 ± 100	1200 ± 100	1.4	CNc1ncc2cc(-c3cc(Br)ccc3Br)c(=O)n(CCCCN)c2n1 [compound 11, 8-(4-Aminobutyl)-6-(2,5-dibromophenyl)-2-(methylamino)pyrido[2,3-d]pyrimidin-7(8H)-one]	ΔTm at 10 µM ([6]; read-out: dTm 11): -0.8 °C; ΔTm at 10 µM ([7]; read-out: dTm 11): 0.8 °C; ΔTm at 10 µM ([8]; read-out: dTm 11): 0 °C; ΔTm at 10 µM ([9]; read-out: dTm 11): 3 °C; ΔTm at 10 µM ([10]; read-out: dTm 11): 11.6 °C; ΔTm at 10 µM ([11]; read-out: dTm 11): 0.3 °C; ΔTm at 10 µM ([12]; read-out: dTm 11): 1.3 °C
